Laboratory results from article PMC11350868, “A Novel Bacitracin-like Peptide from Mangrove-Isolated Bacillus paralicheniformis NNS4-3 against MRSA and Its Genomic Insights” (Antibiotics, 2024).
Values after ≈ are worked out from the molar mass of the structure shown. Values joined by “and” are separate entries in the source; they are usually repeats but may differ in a detail not shown here. Identical values can stand only once. Like-named read-outs stand apart in the source and are kept apart here.

How the values were obtained:
MRSA strain 2468 [1] = assay: Time-kill kinetics; type: cell-based, Staphylococcus aureus; conditions: 4× MIC; CAMHB, 37 °C
Protocol: S. aureus TISTR 517 and MRSA strain 2468 were adjusted to a cell density of 5 × 10^5 CFU/mL with CAMHB for the initial treatment. […] The reactions were conducted at 37 °C, followed by spreading the total volume onto MH agar at specific time intervals (0–24 h). Subsequently, the spread plates were incubated at 37 °C for 24 h before counting the colonies. The bacterial reduction trends were presented with a log10 scale of viable cells (logCFU/mL) versus treatment duration. The bacterial cell reduction was determined within 24 h. Each experiment was conducted in triplicate on the 96-well plates. The presence of significant differences (p-value < 0.05) was assessed by two-way ANOVA, followed by the post hoc Tukey’s test for conducting multiple comparisons between treated and non-treated samples at each time interval.

[2] = Thermal stability (residual antibacterial activity); type: physicochemical; conditions: AMP 10 µg/mL in purified water, agar well diffusion vs MRSA strain 2468, relative to non-treated sample, mean ± SD, triplicate
Protocol: (§2) The AMP was dissolved in sterile purified water and adjusted to a final concentration of 10 µg/mL. The sensitivity of the AMP to temperatures of 60, 80, and 100 °C as well as autoclaving at 121 °C for 15 and 30 min was evaluated. The sensitivity of the AMP to proteolytic enzymes with different digesting characteristics was studied by incubating with a concentration of 1 mg/mL of proteinase K, trypsin, and α-chymotrypsin (Sigma-Aldrich, Warren, MI, USA). Surfactant compatibility of the AMP was examined by exposing the sample to 1% SDS and 1% Triton X-100 (AppliChem GmbH, Darmstadt, Germany). The propensity of the AMP for acid and base hydrolysis was examined by adjusting the pH of the solution to 1.2, 4.5, 6.8, and 7.4. After incubation, the pH of the AMP solution was neutralized to 7.4 before being assessed for antimicrobial activity. Following all treatments, the antibacterial assay using agar well diffusion against the MRSA strain 2468 was conducted in triplicate. The stability profiles are presented as the percentage of the activity relative to the untreated conditions (mean ± SD) and statistical significance was determined by the Student’s t-test at a p-value < 0.05.

[3] = Effect of pH on the stability (residual antibacterial activity); type: physicochemical; conditions: AMP 10 µg/mL, mean ± SD, triplicate
Protocol: as §2

Proteinase K = biological target: T1, Proteinase K (Parengyodontium album, UniProt P06873); assay: Proteolytic enzyme stability (residual antibacterial activity); type: in vitro ADME; conditions: Proteinase K 1 mg/mL, AMP 10 µg/mL, agar well diffusion vs MRSA strain 2468, relative to non-treated sample, mean ± SD, triplicate
T1 construct: purchased Sigma-Aldrich
Protocol: as §2

MRSA strain 2468 [4] = assay: microbe, parasite or virus in culture; type: cell-based, Staphylococcus aureus; conditions: strain 2468, 24 h
Protocol: (§1) The MIC and MBC of the purified peptide of NNS4-3 were determined against various strains of S. aureus. The broth microdilution method followed the guidance provided by the Clinical and Laboratory Standards Institute (CLSI). Pathogenic bacteria, such as S. aureus TISTR 517 and MRSA strains 142, 1096, and 2468, were used as test strains and cultured on MH agar at 37 °C for 18 h. A single colony of each tested bacterium was suspended in 0.85% NaCl until its turbidity reached an OD of 0.1 at 625 nm (1 × 10^8 CFU/mL). The bacterial cells were diluted to 5 × 10^6 CFU/mL using cation-adjusted Mueller Hinton broth (CAMHB). The diluted cell suspension (10 µL) was transferred to each well of a 96-well plate. With a total volume of 100 µL in each well, the purified AMP was added to each well to obtain final concentrations between 0.125 and 64 µg/mL. Standard antibiotics (vancomycin and cefoxitin) and antibiotic-free samples were used as positive and negative controls, respectively. The 96-well plate was incubated at 37 °C for 24 h. The experiment was carried out in triplicate for each strain. […] Subsequently, 100 µL of each dilution was spread on MH agar and then incubated at 37 °C for 24 h. The MBC was identified as the lowest concentration at which no bacterial colony growth was observed on the plate.

MRSA strain 142 = assay: microbe, parasite or virus in culture; type: cell-based, Staphylococcus aureus; conditions: strain 142, 24 h
Protocol: as §1

MRSA strain 1096 = assay: microbe, parasite or virus in culture; type: cell-based, Staphylococcus aureus; conditions: strain 1096, 24 h
Protocol: as §1

S. aureus TISTR 517 [5] = assay: microbe, parasite or virus in culture; type: cell-based, Staphylococcus aureus; conditions: TISTR 517, 24 h
Protocol: as §1

Trypsin = Trypsin 1 mg/mL, AMP 10 µg/mL, agar well diffusion vs MRSA strain 2468, relative to non-treated sample, mean ± SD, triplicate
Protocol: as §2

[6] = Surfactant stability (residual antibacterial activity); type: physicochemical; conditions: AMP 10 µg/mL, agar well diffusion vs MRSA strain 2468, relative to non-treated sample, mean ± SD, triplicate
Protocol: as §2

S. aureus TISTR 517 [7] = assay: SEM of treated cells (morphological changes); type: cell-based, Staphylococcus aureus; conditions: 1× MIC, 18 h incubation, 20,000× magnification
Protocol: The treatment effect of NNS4-3 AMP on tested bacterial cells was investigated by observing morphological changes under SEM. S. aureus TISTR 517 and MRSA strain 2468 were precultured in MH broth for 18 h before being centrifuged to harvest the cell pellet. Cell pellets of both strains were washed with 0.85% sterile NaCl solution 3 times to remove exopolysaccharide. The washed cells were then dispersed in CAMHB to adjust cell turbidity to 0.1 OD at 625 nm. The prepared cells were diluted to 5 × 10^5 CFU/mL with CAMHB before being treated with NNS4-3 AMP. […] The sample for SEM micrography was prepared by fixing the bacterial sample in 2.5% glutaraldehyde in 0.1 M phosphate buffer pH 7.2 for 24 h before ethanol dehydration of the sample. The complete ethanol removal from the prepared sample was conducted by a critical point drying machine (Quorum Technologies Ltd., Lewes, East Sussex, UK).

α-chymotrypsin = α-chymotrypsin (Bos taurus, UniProt P00766); conditions: α-chymotrypsin 1 mg/mL, AMP 10 µg/mL, agar well diffusion vs MRSA strain 2468, relative to non-treated sample, mean ± SD, triplicate
Protocol: as §2

T1 sequence (P06873 106-384): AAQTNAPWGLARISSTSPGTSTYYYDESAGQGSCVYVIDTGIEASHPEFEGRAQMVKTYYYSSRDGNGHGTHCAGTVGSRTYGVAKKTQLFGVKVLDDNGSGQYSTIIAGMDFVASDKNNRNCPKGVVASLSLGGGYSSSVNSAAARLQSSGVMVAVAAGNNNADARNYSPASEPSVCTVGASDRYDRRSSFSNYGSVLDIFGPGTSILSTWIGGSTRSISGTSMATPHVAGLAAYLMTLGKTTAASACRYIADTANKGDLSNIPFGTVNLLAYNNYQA

For CC(C)CC(NC(=O)C(N)CCCCN)C(=O)NC(CC(C)C)C(=O)NC(CCCCN)C(=O)NC(CC(=O)O)C(=O)NC(CC(C)C)C(=O)NC(Cc1ccccc1)C(=O)NC(Cc1c[nH]cn1)C(=O)NC(CC(=O)O)C(=O)NC(CC(N)=O)C(=O)O (single isomer, unassigned) [NNS4-3 AMP], the “time of treatment to complete elimination of viable cells” value (MRSA strain 2468 [1]) was no more than 8 h, the “% Residual Activity” value ([2]; 37 °C, 1 h) was 103.19 ± 3.68% and the “% Residual Activity” value ([2]; 37 °C, 6 h) was 100.00 ± 0.00%. For the same compound, the “% Residual Activity” value ([2]; 37 °C, 12 h) was 99.61 ± 6.44%, the “% Residual Activity” value ([2]; 60 °C, 1 h) was 101.82 ± 2.46% and the “% Residual Activity” value ([2]; 60 °C, 6 h) was 95.27 ± 4.31%. For the same compound, the “% Residual Activity” value ([2]; 60 °C, 12 h) was 90.47 ± 2.98 %, the “% Residual Activity” value ([2]; 80 °C, 1 h) was 97.52 ± 6.21% and the “% Residual Activity” value ([2]; 80 °C, 6 h) was 41.13 ± 35.62 %. The “% Residual Activity” value ([2]; 100 °C, 1 h) was 73.05 ± 1.57 %, the “% Residual Activity” value ([2]; 100 °C, 6 h) was 0.00 ± 0.00 % and the “% Residual Activity” value ([2]; 100 °C, 12 h) was 0.00 ± 0.00 %. The “% Residual Activity” value ([2]; autoclaving 121 °C, 15 psi, 15 min) was 61% and 61.83 ± 0.74 %, the “% Residual Activity” value ([2]; autoclaving 121 °C, 15 psi, 30 min) was 0.00 ± 0.00 % and the “% Residual Activity” value ([3]; pH 1.2, 1 h, neutralized to pH 7.4 before agar well diffusion vs MRSA strain 2468, relative to non-treated sample) was 98.12 ± 2.14%. For the same compound, the “% Residual Activity” value ([3]; pH 1.2, 6 h, neutralized to pH 7.4 before agar well diffusion vs MRSA strain 2468, relative to non-treated sample) was 95.45 ± 0.79%, the “% Residual Activity” value ([3]; pH 1.2, 12 h, neutralized to pH 7.4 before agar well diffusion vs MRSA strain 2468, relative to non-treated sample) was 94.14 ± 3.12% and the “% Residual Activity” value ([3]; pH 4.5, 1 h, neutralized to pH 7.4 before agar well diffusion vs MRSA strain 2468, relative to non-treated sample) was 95.24 ± 3.29%. The “% Residual Activity” value ([3]; pH 4.5, 6 h, neutralized to pH 7.4 before agar well diffusion vs MRSA strain 2468, relative to non-treated sample) was 99.64 ± 2.87%, the “% Residual Activity” value ([3]; pH 4.5, 12 h, neutralized to pH 7.4 before agar well diffusion vs MRSA strain 2468, relative to non-treated sample) was 96.91 ± 2.99% and the “% Residual Activity” value ([3]; pH 6.8, 1 h, neutralized to pH 7.4 before agar well diffusion vs MRSA strain 2468, relative to non-treated sample) was 98.87 ± 2.00%. The “% Residual Activity” value ([3]; pH 6.8, 6 h, neutralized to pH 7.4 before agar well diffusion vs MRSA strain 2468, relative to non-treated sample) was 95.89 ± 5.00%, the “% Residual Activity” value ([3]; pH 6.8, 12 h, neutralized to pH 7.4 before agar well diffusion vs MRSA strain 2468, relative to non-treated sample) was 92.54 ± 4.14% and the “% Residual Activity” value ([3]; pH 7.4, 1 h, agar well diffusion vs MRSA strain 2468, relative to non-treated sample) was 97.80 ± 1.32%. For the same compound, the “% Residual Activity” value ([3]; pH 7.4, 6 h, agar well diffusion vs MRSA strain 2468, relative to non-treated sample) was 94.82 ± 2.80%, the “% Residual Activity” value ([3]; pH 7.4, 12 h, agar well diffusion vs MRSA strain 2468, relative to non-treated sample) was 93.29 ± 1.89% and the “% Residual Activity” value (Proteinase K; 1 h) was 98.66 ± 1.68%. The “% Residual Activity” value (Proteinase K; 6 h) was 99.19 ± 1.07%, the “% Residual Activity” value (Proteinase K; 12 h) was 99.07 ± 3.08% and the MBC (MRSA strain 2468 [4]) was 4 µg/mL (≈ 3.22 µM). It also gave an MIC (MRSA strain 2468 [4]) of 1 µg/mL (≈ 0.805 µM), an MBC (MRSA strain 142) of 4 µg/mL (≈ 3.22 µM) and an MIC (MRSA strain 142) of 1 µg/mL (≈ 0.805 µM). For the same compound, the MBC (MRSA strain 1096) was 4 µg/mL (≈ 3.22 µM), the MIC (MRSA strain 1096) was 1 µg/mL (≈ 0.805 µM) and the MBC (S. aureus TISTR 517 [5]) was 64 µg/mL (≈ 51.5 µM). The MIC (S. aureus TISTR 517 [5]) was 16 µg/mL (≈ 12.9 µM), the “% Residual Activity” value (Trypsin; 1 h) was 95.57 ± 4.01% and the “% Residual Activity” value (Trypsin; 6 h) was 95.66 ± 2.62%. The “% Residual Activity” value (Trypsin; 12 h) was 93.81 ± 3.31%, the “% Residual Activity” value ([6]; 1% SDS, 1 h) was 87.00 ± 6.17 % and the “% Residual Activity” value ([6]; 1% SDS, 6 h) was 86.69 ± 5.39 %. The “% Residual Activity” value ([6]; 1% SDS, 12 h) was 86.25 ± 4.76 %, the “% Residual Activity” value ([6]; 1% Triton X-100, 1 h) was 104.54 ± 4.96% and the “% Residual Activity” value ([6]; 1% Triton X-100, 12 h) was 103.40 ± 3.82%. The “morphological changes under SEM” value (S. aureus TISTR 517 [7]) was “cellular lysis”, the “% Residual Activity” value (α-chymotrypsin; 1 h) was 96.65 ± 2.14% and the “% Residual Activity” value (α-chymotrypsin; 6 h) was 95.15 ± 6.64%. The “% Residual Activity” value (α-chymotrypsin; 12 h) was 97.06 ± 0.54%.
